Data: PubChem BioAssay (NCI)
Where “and” joins values, the source holds several entries; their conditions need not be identical. Identical values can stand only once.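 Step 1: Grow cells in 96-well plates. Step 2: Expose to compound for 48 hours at 5 concentrations. Step 3: Interpolate endpoints linearly; if unreached, use highest concentration. Here, GI50 denotes the concentration required for 50% inhibition of growth. TGI: total growth inhibition.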

Legend:
Experiment in all cases: DTP human tumour cell line panel, 48 h
786-0 renal = system: 786-0 renal
KM12 colon = system: KM12 colon
M14 melanoma = system: M14 melanoma
OVCAR-4 ovarian = system: OVCAR-4 ovarian
OVCAR-5 ovarian = system: OVCAR-5 ovarian
SF-268 CNS = system: SF-268 CNS
SW-620 colon = system: SW-620 colon
TK-10 renal = system: TK-10 renal
UACC-257 melanoma = system: UACC-257 melanoma
CAKI-1 renal = system: CAKI-1 renal

Compound | GI50 (786-0 renal) [µM] | TGI (786-0 renal) [µM] | GI50 (KM12 colon) [µM] | TGI (KM12 colon) [µM] | GI50 (M14 melanoma) [µM] | TGI (M14 melanoma) [µM] | GI50 (OVCAR-4 ovarian) | TGI (OVCAR-4 ovarian) [µM] | GI50 (OVCAR-5 ovarian) [µM] | TGI (OVCAR-5 ovarian) [µM] | GI50 (SF-268 CNS) [µM] | TGI (SF-268 CNS) [µM] | GI50 (SW-620 colon) [µM] | TGI (SW-620 colon) [µM] | GI50 (TK-10 renal) [µM] | TGI (TK-10 renal) [µM] | GI50 (UACC-257 melanoma) [µM] | TGI (UACC-257 melanoma) [µM] | TGI (CAKI-1 renal) [µM] | GI50 (CAKI-1 renal) [µM]
Cc1cc(N2CCCC2)nc(N(CCCNc2ccnc3cc(Cl)ccc23)Cc2ccc3c(c2)OCO3)n1 | 1.11 | 2.8 | 2.73 | 11 | 1.37 | 3.04 | 1.86 µM | 8.22 | 2.46 | 8.92 | 2.89 | 16.6 | 1.21 | 2.87 | 2.25 | 6.81 | 1.84 | 3.47 | – | –
CC(=O)Oc1ccccc1C(=O)C1c2cccc(O)c2C(=O)c2c(O)cccc21 | – | 3.98 | – | 1.59 | – | 5.16 | – | 4.48 | – | 6.22 | – | 5.54 | – | 2.26 | – | 15.4 | – | 3.76 | 5.39 | –
COC(=O)C(Cc1nc2ccc(Cl)cc2[nH]c1=O)C(=O)C(=O)Nc1ccccc1[N+](=O)[O-] (stereo not drawn) | – | > 100 | – | > 100 | – | > 100 | – | > 100 | – | > 100 | – | > 100 | – | > 100 | – | > 100 | – | > 100 | > 100 | –
S=c1ssc(Sc2ccccn2)c1Cl | 4.09 | 14.4 | 15.5 | 28.8 | 14 | 27 | 5.2 µM | > 100 | 25.6 | 48.3 | 13.5 | 26.4 | – | – | 2.11 | 8.57 | 22.2 | 57.9 | 31.4 | 17.6
N#Cc1ccccc1NC(=O)c1ccccc1 | – | > 100 | – | > 100 | – | – | – | > 100 | – | > 100 | – | > 100 | – | > 100 | – | > 100 | – | > 100 | > 100 | –
CN(C)c1ccc(C(N)=O)cn1 | – | > 100 | – | > 100 | – | – | – | – | – | > 100 | – | > 100 | – | > 100 | – | > 100 | – | > 100 | – | –
O=[N+]([O-])c1nccn1CC1OC(n2ccnc2[N+](=O)[O-])C(O)C(O)C1O (stereo not drawn) | – | > 100 | – | > 100 | – | > 100 | – | – | – | > 100 | – | – | – | > 100 | – | > 100 | – | > 100 | – | –
CCc1c2c(nc3cccc(N)c13)-c1cc3c(c(=O)n1C2)COC(=O)[C@]3(O)CC | < 0.001 | 1.62 | 0.159 | – | 0.00202 | 2.97 | 0.104 µM and 0.0238 µM | > 100 | – | 0.115 | 0.00233 | 78 | 0.011 | > 100 | – | 0.748 | – | – | 0.0349 | –
O=C(Cc1ccccc1)N/N=C(\C1=Nc2ccc([N+](=O)[O-])cc2NC1O)C(O)c1ccc([N+](=O)[O-])cc1 (stereo not drawn) | – | > 100 | – | – | – | > 100 | – | – | – | > 100 | – | > 100 | – | > 100 | – | > 100 | – | > 100 | > 100 | –
C[C@H](CSC(=O)c1ccccc1)C(=O)N1c2ccccc2C[C@H]1C(=O)O | – | > 10 | – | > 10 | – | – | – | > 100 | – | > 100 | – | > 100 | – | > 100 | – | > 100 | – | > 100 | > 100 | –
CCOc1ccc(NC(=O)CC2SC(N)=NC2=O)cc1 (stereo not drawn) | – | > 100 | – | > 100 | – | > 100 | – | > 100 | – | > 100 | – | > 100 | – | > 100 | – | > 100 | – | > 100 | – | –
C/C=C(/CCCCNCCCC)[Si](C)(C)C | – | 25.5 | – | 30.6 | – | 27.7 | – | – | – | 27.6 | – | 26.2 | – | 34.1 | – | 28.6 | – | 30.3 | – | –
CCOC(=O)c1cnn(-c2ccnc3c(C(F)(F)F)cccc23)c1N | > 100 | > 100 | > 100 | > 100 | – | – | > 100 µM | > 100 | > 100 | > 100 | > 100 | > 100 | > 100 | > 100 | > 100 | > 100 | > 100 | > 100 | > 100 | > 100
COc1cnc2c(c1)C(=O)c1c-2n(CCCN2CCCC2)c(=O)c2cc(Cl)ccc12 | 1.47 | 9.66 | 2.11 | 10.3 | 0.872 | 11.8 | 1.43 µM | 11.2 | 5.02 | 11.3 | 0.17 | 9.38 | 0.0313 | 8.09 | – | – | 7.85 | 21.6 | 8.18 | 0.034
C=C(N=[N+]=[N-])c1cn(C2CC(O)C(CO)O2)c(=O)[nH]c1=O (stereo not drawn) | – | > 100 | – | > 100 | – | > 100 | – | – | – | > 100 | – | – | – | > 100 | – | > 100 | – | – | > 100 | –
O=c1cccccc1NCCCCCCCCCNc1cccccc1=O | – | 88.9 | – | 33.3 | – | 25.7 | – | > 100 | – | 58 | – | 45.7 | – | 68.2 | – | – | – | 7.35 | > 100 | –
CCCCCCCCCCCCC(=O)[O-].CCCCCCCCCCCCC(=O)[O-].CCCCCCCCCCCCC(=O)[O-].CCCCCCCCCCCCC(=O)[O-].[Mo+2].[Mo+2] | 3.68 | 16 | 10.9 | 29.1 | 11.7 | 27.8 | 10.2 µM | 24.2 | 23.6 | 67 | 17.3 | 45.1 | 15.1 | 29 | 32.6 | 94.6 | 26.5 | 96.1 | – | –
C/C1=C\CC[C@@](C)(O)[C@@H]2CC3[C@@H](OC(=O)C34CC4)[C@@H](O2)[C@H](C)CCC1 (stereo partly drawn) | 16.2 | 29.8 | 21.6 | 62.2 | – | – | 38 µM | > 100 | 16.1 | 30.2 | 19.4 | 73.3 | 35.2 | > 100 | – | – | 20.4 | 44.1 | 34.4 | 18
